In brackets after ≈: the same amount, converted by molar mass.
Assays:
[1] = tested on: Candida albicans; test: Antifungal activity against Candida albicans clinical isolate after 24 to 48 hrs by standard broth microdilution method; type: functional
[2] = Selectivity index, ratio of IC50 for african green monkey Vero cells to IC50 for chloroquine-sensitive Plasmodium falciparum 3D7; type: toxicity, cell-based; settings: read-out: Ratio IC50
[3] = tested on: Plasmodium falciparum; test: Antiplasmodial activity against chloroquine-resistant Plasmodium falciparum K1 infected after 72 hrs by Malaria SYBR Green I-staining based fluorescence assay; type: functional, organism-based; settings: K1, 72 h
[4] = tested on: Aspergillus fumigatus; test: Antifungal activity against Aspergillus fumigatus clinical isolate after 72 to 96 hrs by standard broth microdilution method; type: functional
[5] = tested on: Trichophyton mentagrophytes; test: Antifungal activity against Trichophyton mentagrophytes clinical isolate after 72 to 96 hrs by standard broth microdilution method; type: functional
[6] = tested on: Cryptococcus neoformans; test: Antifungal activity against Cryptococcus neoformans clinical isolate after 24 to 48 hrs by standard broth microdilution method; type: functional
[7] = tested on: Escherichia coli; test: Antimicrobial activity against Escherichia coli ATCC 9637 after 24 hrs by standard broth microdilution method; type: functional; settings: ATCC 9637, 24 h
[8] = tested on: Pseudomonas aeruginosa; test: Antimicrobial activity against Pseudomonas aeruginosa ATCC BAA-427 after 24 hrs by standard broth microdilution method; type: functional; settings: ATCC BAA-427, 24 h
[9] = tested on: Staphylococcus aureus; test: Antimicrobial activity against Staphylococcus aureus ATCC 25923 after 24 hrs by standard broth microdilution method; type: functional; settings: ATCC 25923, 24 h
[10] = tested on: Candida parapsilosis; test: Antifungal activity against Candida parapsilosis ATCC […] after 72 to 96 hrs by standard broth microdilution method; type: functional; settings: Lodderomyces parapsilosis
[11] = tested on: Plasmodium falciparum; test: Antiplasmodial activity against chloroquine-sensitive Plasmodium falciparum 3D7 infected after 72 hrs by Malaria SYBR Green I-staining based fluorescence assay; type: functional, organism-based; settings: 3D7, 72 h
[12] = tested on: Sporothrix schenckii; test: Antifungal activity against Sporothrix schenckii clinical isolate after 72 to 96 hrs by standard broth microdilution method; type: functional
[13] = tested on: Klebsiella pneumoniae; test: Antimicrobial activity against Klebsiella pneumoniae ATCC 27736 after 24 hrs by standard broth microdilution method; type: functional; settings: ATCC 27736, 24 h

Row | SMILES | MIC [1] [µg/mL] | selectivity ratio [2] | IC50 [3] [µM] | MIC [4] [µg/mL] | MIC [5] [µg/mL] | MIC [6] [µg/mL] | MIC [7] [µg/mL] | MIC [8] [µg/mL] | MIC [9] [µg/mL] | MIC [10] [µg/mL] | IC50 [11] [µM] | MIC [12] [µg/mL] | MIC [13] [µg/mL]
1 | COC(=O)/C(C)=C/c1ccc(Oc2ccc(N/C(=N/c3cccc(Cl)c3)NCCCCNc3ccnc4cc(Cl)ccc34)cc2)cc1 | > 50 | 47.9 | 0.0668 | > 50 | 50 (≈ 74.8 µM) | > 50 | 12.5 (≈ 18.7 µM) | > 50 | 3.12 (≈ 4.67 µM) | > 50 | 0.0519 | 50 (≈ 74.8 µM) | 50 (≈ 74.8 µM)
2 | Clc1ccc(/N=C(\NCCNc2ccnc3cc(Cl)ccc23)Nc2ccccc2Oc2cc(Cl)ccc2Cl)cc1 | 25 (≈ 40.9 µM) | 16.5 | > 0.8 | > 50 | 50 (≈ 81.8 µM) | > 50 | 12.5 (≈ 20.4 µM) | > 50 | 6.25 (≈ 10.2 µM) | > 50 | 0.0581 | 25 (≈ 40.9 µM) | > 50
3 | COc1ccc(Oc2ccc(N/C(=N/c3ccccc3)NCCCCNc3ccnc4cc(Cl)ccc34)cc2)cc1 | 12.5 (≈ 22.1 µM) | 49 | 0.0921 | 25 (≈ 44.2 µM) | 12.5 (≈ 22.1 µM) | 25 (≈ 44.2 µM) | 50 (≈ 88.3 µM) | > 50 | 6.25 (≈ 11 µM) | 12.5 (≈ 22.1 µM) | 0.086 | 12.5 (≈ 22.1 µM) | 25 (≈ 44.2 µM)
4 | COC(=O)/C(C)=C/c1ccc(Oc2ccccc2N/C(=N/c2ccc(Cl)cc2)NCCCNc2ccnc3cc(Cl)ccc23)cc1 | 50 (≈ 76.4 µM) | 32.7 | 0.263 | > 50 | 25 (≈ 38.2 µM) | 50 (≈ 76.4 µM) | 12.5 (≈ 19.1 µM) | > 50 | 1.56 (≈ 2.38 µM) | > 50 | 0.0745 | 25 (≈ 38.2 µM) | > 50
5 | COC(=O)/C(C)=C/c1ccc(Oc2ccc(N/C(=N/c3ccc(Cl)cc3)NCCCNc3ccnc4cc(Cl)ccc34)cc2)cc1 | 12.5 (≈ 19.1 µM) | 100 | 0.198 | 50 (≈ 76.4 µM) | 12.5 (≈ 19.1 µM) | 12.5 (≈ 19.1 µM) | 12.5 (≈ 19.1 µM) | > 50 | 12.5 (≈ 19.1 µM) | 12.5 (≈ 19.1 µM) | 0.0385 | 6.25 (≈ 9.55 µM) | 50 (≈ 76.4 µM)
6 | COC(=O)/C(C)=C/c1ccc(Oc2ccc(N/C(=N/c3ccccc3)NCCNc3ccnc4cc(Cl)ccc34)cc2)cc1 | 1.52 (≈ 2.51 µM) | 158 | 0.0659 | 25 (≈ 41.2 µM) | 6.25 (≈ 10.3 µM) | 12.5 (≈ 20.6 µM) | 12.5 (≈ 20.6 µM) | > 50 | 25 (≈ 41.2 µM) | 12.5 (≈ 20.6 µM) | 0.0703 | 12.5 (≈ 20.6 µM) | > 50
7 | COC(=O)/C(C)=C/c1ccc(Oc2ccc(N/C(=N/c3cccc(Cl)c3)NCCNc3ccnc4cc(Cl)ccc34)cc2)cc1 | 50 (≈ 78.1 µM) | 71.7 | 0.123 | > 50 | 25 (≈ 39 µM) | 50 (≈ 78.1 µM) | 12.5 (≈ 19.5 µM) | 50 (≈ 78.1 µM) | 6.25 (≈ 9.76 µM) | 50 (≈ 78.1 µM) | 0.0489 | 25 (≈ 39 µM) | 12.5 (≈ 19.5 µM)
8 | Clc1cccc(/N=C(\NCCCNc2ccnc3cc(Cl)ccc23)Nc2ccccc2Oc2cc(Cl)ccc2Cl)c1 | 25 (≈ 40 µM) | 18.7 | 0.0777 | > 50 | 50 (≈ 80 µM) | 50 (≈ 80 µM) | 6.25 (≈ 9.99 µM) | > 50 | 1.56 (≈ 2.49 µM) | 50 (≈ 80 µM) | 0.0877 | 50 (≈ 80 µM) | > 50
9 | Clc1ccc(/N=C(\NCCNc2ccnc3cc(Cl)ccc23)Nc2ccc(Oc3cc(Cl)ccc3Cl)cc2)cc1 | 6.25 (≈ 10.2 µM) | 189 | 0.0541 | 6.25 (≈ 10.2 µM) | 6.25 (≈ 10.2 µM) | 6.25 (≈ 10.2 µM) | 6.25 (≈ 10.2 µM) | > 50 | 25 (≈ 40.9 µM) | 12.5 (≈ 20.4 µM) | 0.044 | 3.12 (≈ 5.1 µM) | > 50
10 | COc1ccc(Oc2ccc(N/C(=N/c3cccc(Cl)c3)NCCNc3ccnc4cc(Cl)ccc34)cc2)cc1 | 25 (≈ 43.7 µM) | 91.3 | 0.0833 | > 50 | 12.5 (≈ 21.8 µM) | > 50 | 12.5 (≈ 21.8 µM) | > 50 | 12.5 (≈ 21.8 µM) | > 50 | 0.0887 | 12.5 (≈ 21.8 µM) | 12.5 (≈ 21.8 µM)
11 | COC(=O)/C(C)=C/c1ccc(Oc2ccccc2N/C(=N/c2ccccc2)NCCCCNc2ccnc3cc(Cl)ccc23)cc1 | > 50 | 78 | 0.141 | > 50 | > 50 | > 50 | > 50 | > 50 | > 50 | > 50 | 0.287 | > 50 | > 50
12 | COC(=O)/C(C)=C/c1ccc(Oc2ccccc2N/C(=N/c2cccc(Cl)c2)NCCCCNc2ccnc3cc(Cl)ccc23)cc1 | 50 (≈ 74.8 µM) | 80.7 | > 0.8 | > 50 | > 50 | > 50 | 12.5 (≈ 18.7 µM) | > 50 | 3.12 (≈ 4.67 µM) | > 50 | 0.0312 | > 50 | > 50
13 | Clc1ccc(Cl)c(Oc2ccccc2N/C(=N/c2ccccc2)NCCCCNc2ccnc3cc(Cl)ccc23)c1 | 50 (≈ 82.6 µM) | 43.5 | 0.094 | > 50 | 50 (≈ 82.6 µM) | > 50 | 25 (≈ 41.3 µM) | > 50 | 12.5 (≈ 20.7 µM) | > 50 | 0.194 | 25 (≈ 41.3 µM) | > 50
14 | Clc1ccc(/N=C(\NCCCCNc2ccnc3cc(Cl)ccc23)Nc2ccc(Oc3cc(Cl)ccc3Cl)cc2)cc1 | 12.5 (≈ 19.5 µM) | 756 | 0.209 | 25 (≈ 39.1 µM) | 12.5 (≈ 19.5 µM) | 12.5 (≈ 19.5 µM) | 6.25 (≈ 9.77 µM) | > 50 | 6.25 (≈ 9.77 µM) | 12.5 (≈ 19.5 µM) | 0.029 | 6.25 (≈ 9.77 µM) | 12.5 (≈ 19.5 µM)
15 | Clc1cccc(/N=C(\NCCCCNc2ccnc3cc(Cl)ccc23)Nc2ccc(Oc3cc(Cl)ccc3Cl)cc2)c1 | 3.12 (≈ 4.88 µM) | 26.3 | > 0.782 | 25 (≈ 39.1 µM) | 6.25 (≈ 9.77 µM) | 12.5 (≈ 19.5 µM) | 6.25 (≈ 9.77 µM) | > 50 | 6.25 (≈ 9.77 µM) | 6.25 (≈ 9.77 µM) | 0.126 | 3.12 (≈ 4.88 µM) | 50 (≈ 78.2 µM)

Source: ChEMBL document CHEMBL3232804, “Synthesis and evaluation of new diaryl ether and quinoline hybrids as potential antiplasmodial and antimicrobial agents” (Bioorg Med Chem Lett, 2014)
